Measured values taken from the supplement of paper PMC11061612.

What was measured:
Assay in all cases: combination Emax (second highest fraction inhibited in the dose matrix, 72 h); higher = more inhibition; extreme values may be limits of the assay
[1] = system: SK-GT-2 (Gastric Carcinoma)
Outline: (§1)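 After 24 hours at 37°C and 5% CO2 in 1536-well plates, cells in DMEM/F12 or RPMI plus 10% FBS received two-drug dose matrices for 72 hours. Viability came from CellTiter-Glo 2.0 luminescence and was scaled as inhibition, anchored at 0 by vehicle wells and at 1 by blank wells. Combination Emax is taken as the second-highest inhibition in the matrix, and Bliss excess as the observed combination effect less EA + EB − EA·EB, with EA and EB the single-agent effects.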

[2] = system: KP-3 (Pancreatic Carcinoma)
Outline: as §1

[3] = system: SUP-B15 (B-Lymphoblastic Leukemia)
Outline: as §1

[4] = system: ESO51 (Esophageal Adenocarcinoma)
Outline: as §1

[5] = system: MOLM-13 (Acute Myeloid Leukemia)
Outline: as §1

[6] = system: NCI-H661 (Non-Small Cell Lung Carcinoma)
Outline: as §1

[7] = system: KU812 (Chronic Myelogenous Leukemia)
Outline: as §1

G-361 (Melanoma) = system: G-361 (Melanoma)
Outline: as §1

[8] = system: MN-60 (B-Lymphoblastic Leukemia)
Outline: as §1

[9] = system: NCI-H929 (Plasma Cell Myeloma)
Outline: as §1

[10] = system: COR-L279 (Small Cell Lung Carcinoma)
Outline: as §1

[11] = system: IM-95 (Gastric Carcinoma)
Outline: as §1

[12] = system: NCI-H3122 (Lung Adenocarcinoma)
Outline: as §1

SJSA-1 (Osteosarcoma) = system: SJSA-1 (Osteosarcoma)
Outline: as §1

NCI-H2731 (Mesothelioma) = system: NCI-H2731 (Mesothelioma)
Outline: as §1

[13] = system: RPMI-8226 (Plasma Cell Myeloma)
Outline: as §1

[14] = system: KMS-12-BM (Plasma Cell Myeloma)
Outline: as §1

[15] = system: 8505C (Thyroid Gland Carcinoma)
Outline: as §1

[16] = system: MOG-G-CCM (Low Grade Glioma)
Outline: as §1

[17] = system: KYSE-270 (Esophageal Squamous Cell Carcinoma)
Outline: as §1

Compound | combination Emax [1] | combination Emax [2] | combination Emax [3] | combination Emax [4] | combination Emax [5] | combination Emax [6] | combination Emax [7] | combination Emax (G-361 (Melanoma)) | combination Emax [8] | combination Emax [9] | combination Emax [10] | combination Emax [11] | combination Emax [12] | combination Emax (SJSA-1 (Osteosarcoma)) | combination Emax (NCI-H2731 (Mesothelioma)) | combination Emax [13] | combination Emax [14] | combination Emax [15] | combination Emax [16] | combination Emax [17]
COc1nnc2ccc(N3CCC(c4ccc(OCCN5CCN(C)C(=O)[C@H]5C)cc4)CC3)nn12 [AZD5153] + CCN(CCO)CCCOc1ccc2c(Nc3cc(CC(=O)Nc4cccc(F)c4)[nH]n3)ncnc2c1 [AZD2811] (first compound max 1 µM, 7x7, partner max 1 µM) | 0.302 | 0.281 | 1 | 0.639 | 1 | 0.375 | 0.935 | 0.649 | 0.74 | 0.939 | 0.907 | 0.336 | 0.668 | 0.64 | 0.489 | 0.8 | 0.998 | 0.5 | 0.571 | 0.439
Cc1c2c(nn1C)CSCc1cc(n(C)n1)CSc1cc(c3ccccc3c1)OCCCc1c(C(=O)O)n(C)c3c-2c(Cl)ccc13 [AZD5991] + Cc1cc2ncnn2cc1Nc1ncc2c(n1)n(C1CCOCC1)c(=O)n2C [AZD7648] (first compound max 1 µM, 7x7, partner max 10 µM) | 0.192 | 0.168 | 1 | 0.127 | 1 | 0.419 | 0.848 | 0.956 | 0.15 | 1 | 0.468 | 0.788 | 0.442 | 0.361 | 0.576 | 0.957 | 1 | 0.193 | 0.302 | 0.508
CN(CCO)CC[C@H](CSc1ccccc1)Nc1ccc(S(=O)(=O)NC(=O)c2ccc(N3CCC([C@@H](O)c4ccccc4-c4ccc(Cl)cc4)CC3)cc2)cc1S(=O)(=O)C(F)(F)F [AZD4320] + C1CN(CCC1(C(=O)N[C@@H](CCO)C2=CC=C(C=C2)Cl)N)C3=NC=NC4=C3C=CN4 [Capivasertib] (first compound max 1 µM, 7x7, partner max 3 µM) | 0.403 | 0.0865 | 1 | 0.0266 | 1 | 0.0615 | 0.737 | 0.234 | 0.137 | 0.969 | 0.983 | 0.658 | 0.285 | 0.392 | 0.197 | 0.925 | 1 | 0.135 | 0.528 | 0.23
CC1(C)CCC(CN2CCN(c3ccc(C(=O)NS(=O)(=O)c4ccc(NCC5CCOCC5)c([N+](=O)[O-])c4)c(Oc4cnc5[nH]ccc5c4)c3)CC2)=C(c2ccc(Cl)cc2)C1 [Venetoclax] + C[C@@H]1COCCN1C2=NC(=NC(=C2)C3(CC3)[S@](=N)(=O)C)C4=C5C=CNC5=NC=C4 [AZD6738] (first compound max 1 µM, 7x7, partner max 10 µM) | 0.331 | 0.323 | 1 | 0.82 | 1 | 0.654 | 0.83 | 0.599 | 0.456 | 0.78 | 0.833 | 0.169 | 0.652 | 0.478 | 0.307 | 0.962 | 1 | 0.482 | 0.538 | 0.869
Cn1cnc2c(F)c(Nc3ccc(Br)cc3Cl)c(C(=O)NOCCO)cc21 [Selumetinib] + C=CCn1c(=O)c2cnc(Nc3ccc(N4CCN(C)CC4)cc3)nc2n1-c1cccc(C(C)(C)O)n1 [AZD1775] (first compound max 10 µM, partner max 1 µM) | 0.652 | 0.274 | 0.915 | 0.681 | 1 | 0.553 | 0.965 | 0.826 | 0.282 | 0.684 | 0.432 | 0.453 | 0.78 | 0.449 | 0.194 | 0.438 | 0.916 | 0.425 | 0.357 | 0.723
CC1(C)CCC(CN2CCN(c3ccc(C(=O)NS(=O)(=O)c4ccc(NCC5CCOCC5)c([N+](=O)[O-])c4)c(Oc4cnc5[nH]ccc5c4)c3)CC2)=C(c2ccc(Cl)cc2)C1 [Venetoclax] + C=CCn1c(=O)c2cnc(Nc3ccc(N4CCN(C)CC4)cc3)nc2n1-c1cccc(C(C)(C)O)n1 [AZD1775] (first compound max 1 µM, partner max 1 µM) | 0.597 | 0.307 | 1 | 0.647 | 1 | 0.63 | 0.776 | 0.589 | 0.305 | 0.659 | 0.746 | 0.299 | 0.734 | 0.453 | 0.286 | 0.538 | 1 | 0.244 | 0.688 | 0.946
